Data published in ChEMBL document CHEMBL3872246, “Synthesis, antioxidant and antichagasic properties of a selected series of hydroxy-3-arylcoumarins” (Bioorg Med Chem, 2017).
The source made the active and inactive calls. The rule behind the calls is not given here.

Tests used:
[1] = Oxidation potential of compound against Ag/Agcl reference electrode at 1 mM by cyclic voltametry; format: physicochemical; settings: 1000 µM
Trypanosoma cruzi [2] = assay: Antitrypanosomal activity against Trypanosoma cruzi Dm28c epimastigotes after 24 hrs by MTT assay; format: functional
[3] = Cytotoxicity against mouse RAW264.7 cells measured after 4 hrs by MTT assay; format: toxicity
[4] = Antioxidant activity assessed as AAPH-induced peroxyl radical scavenging activity by measuring ORAC-FL index at 0.5 to 2.5 uM preincubated for 15 mins followed by AAPH addition measured every 1 min for 120 mins by fluorescence assay relative to trolox; format: functional
Trypanosoma cruzi [5] = assay: Antitrypanosomal activity against Trypanosoma cruzi Dm28c epimastigotes at 10 to 100 uM measured after 24 hrs by MTT assay; format: functional
[6] = Induction of free radical species generation assessed as compound-PBN adduct formation at 1 mM by ESR spectroscopic method; format: physicochemical; settings: 1000 µM
[7] = Selectivity index, ratio of IC50 for cytotoxicity against mouse RAW264.7 cells to IC50 for antitrypanosomal activity against trypomastigote stage of Trypanosoma cruzi Dm28c; format: toxicity, cell-based; settings: read-out: Ratio IC50
[8] = Selectivity index, ratio of IC50 for cytotoxicity against mouse RAW264.7 cells to IC50 for antitrypanosomal activity against epimastigote stage of Trypanosoma cruzi Dm28c; format: toxicity, cell-based; settings: read-out: Ratio IC50
[9] = Antioxidant activity assessed as photolysis-induced hydroxyl radical scavenging activity at 1 mM measured after 2 mins using DMPO spin trap by ESR spectroscopic method relative to control; format: functional
Trypanosoma cruzi [10] = assay: Induction of free radical species generation in microsomes of Trypanosoma cruzi Dm28c epimastigotes spin adduct formation at 5 mM measured after 10 mins using DMPO spin trap by ESR spectroscopic method; format: functional
Trypanosoma cruzi [11] = assay: Potency index, ratio of nifurtimox IC50 to compound IC50 for Trypanosoma cruzi Dm28c epimastigotes; format: functional
Trypanosoma cruzi [12] = assay: Antitrypanosomal activity against trypomastigote stage of Trypanosoma cruzi Dm28c infected in African green monkey Vero cells assessed as growth inhibition at 20 to 100 uM incubated for 5 to 7 days post infection measured after 24 hrs by MTT assay; format: functional, cell-based
Trypanosoma cruzi [13] = assay: Potency index, ratio of nifurtimox IC50 to compound IC50 for Trypanosoma cruzi Dm28c trypamastigotes infected in African green monkey Vero cells; format: functional
Trypanosoma cruzi [14] = assay: Antitrypanosomal activity against trypomastigote stage of Trypanosoma cruzi Dm28c infected in African green monkey Vero cells assessed as growth inhibition incubated for 5 to 7 days post infection measured after 24 hrs by MTT assay; format: functional, cell-based
[15] = Oxidation potential of compound at group 2 hydroxyl against Ag/Agcl reference electrode at 1 mM by cyclic voltametry
[16] = Oxidation potential of compound at group 1 hydroxyl against Ag/Agcl reference electrode at 1 mM by cyclic voltametry; format: physicochemical; settings: 1000 µM

Row | Activity [1] [V] | IC50 (Trypanosoma cruzi [2]) [µM] | Activity [6] | IC50 (Trypanosoma cruzi [14]) [µM] | Activity [16] [V] | SMILES | IC50 at 4 h [3] [µM] | Activity [4] | Activity (Trypanosoma cruzi [5]) | selectivity ratio [7] | selectivity ratio [8] | Activity [9] [%] | Activity (Trypanosoma cruzi [10]) | Ratio IC50 (Trypanosoma cruzi [11]) | Activity (Trypanosoma cruzi [12]) | Ratio IC50 (Trypanosoma cruzi [13]) | Activity [15] [V]
1 | 0.79 | > 100 | Active | – | – | O=c1oc2ccc(O)cc2cc1-c1ccccc1O | > 100 | 5.3 | Active | – | – | – | – | – | – | – | –
2 | – | 17.4 | – | – | – | CC1CS(=O)(=O)CCN1/N=C/c1ccc([N+](=O)[O-])o1 (configuration not stated) [NIFURTIMOX] | 263 | – | – | 26.3 | 15.1 | – | – | – | – | – | –
3 | – | > 100 | Active | – | – | O=c1oc2cc(O)cc(O)c2cc1-c1cccc(O)c1 | > 100 | 1.95 | Active | – | – | – | – | – | – | – | –
4 | 0.74 | > 100 | – | – | – | O=c1oc2c(O)cccc2cc1-c1cccc(O)c1 | > 100 | 3.12 | Active | – | – | – | – | – | – | – | –
5 | 0.81 | 28.6 | – | – | – | O=c1oc2c(O)c(O)ccc2cc1-c1cccc(O)c1 | 398 | 2.95 | Active | – | 13.9 | 26.1 | – | – | – | – | –
6 | 0.81 | 84.3 | – | – | – | O=c1oc2c(O)cccc2cc1-c1ccc(O)c(O)c1 | 115 | 4.59 | Active | – | 1.37 | – | – | – | – | – | –
7 | 0.78 | 1.31 | – | 39.7 | – | O=c1oc2c(O)c(O)ccc2cc1-c1ccccc1O | 68.9 | 2.23 | Active | 1.73 | 52.6 | – | Active | 10 - 13 | Active | <=13 | –
8 | – | 47 | – | – | 0.64 | O=c1oc2c(O)c(O)ccc2cc1-c1ccc(O)c(O)c1 | 97.5 | 5.38 | Active | – | 2.07 | 24.3 | – | – | – | – | 0.79
9 | 1.16 | 6.15 | Active | – | – | O=c1oc2cc(O)cc(O)c2cc1-c1ccccc1 | > 100 | 1.81 | Active | – | > 16.3 | 100 | Active | – | – | – | –
10 | – | > 100 | Active | – | 0.8 | O=c1oc2ccc(O)cc2cc1-c1cccc(O)c1 | > 100 | 5.47 | Active | – | – | 100 | – | – | – | – | 1.17
11 | 0.81 | 8.9 | – | – | – | O=c1oc2c(O)c(O)ccc2cc1-c1ccccc1 | 26.1 | 1.11 | Active | – | 2.93 | – | Active | – | – | – | –
